According to PMC2376372, “3-Bromophenyl 6-acetoxymethyl-2-oxo-2H-1-benzopyran-3-carboxylate inhibits cancer cell invasion in vitro and tumour growth in vivo” (British Journal of Cancer, 2003):

What was measured:
[1] = target: T1, HMW-uPA (Homo sapiens, UniProt P00749); test: Inhibition of purified HMW-uPA; type: biochemical; conditions: purified enzyme, pH 7.5, 25°C
T1 construct: purchased Choay
Procedure: Bovine α-CT and LMW-uPA (MW=33 000 Da) were purchased from Sigma, HMW-uPA (MW=54 000 Da) from Choay, trypsin (TRY) and THR from Boehringer-Indelheim (Germany), and MMP-2 and MMP-9 from Calbiochem. Human leucocyte elastase and PM were from Elastase Products Co. and Biogenic, respectively. Except for THR, HMW-uPA, MMP-2 and MMP-9, enzyme concentrations were determined by active-site titrations using the appropriate titrant ([Bender et al, 1966]; [Chase and Shaw, 1970]; [Powers and Gupton, 1977]). Several enzymes were assayed spectrophotometrically at 405 nm using the following p-nitroanilide substrates: succininyl-Ala2-Pro-Phe-p-nitroanilide (Suc-AAPF-p-NA), benzoyl-Arg-p-nitroanilide (Bz-R-p-NA) and methoxysuccinyl-Ala2-Pro-Val-p-nitroanilide (MeO-Suc-AAPV-p-NA) for α-CT, TRY and HLE, respectively (obtained from Sigma); or S-2238 ([…]), S-2444 (<Glu-Gly-Arg-p-nitroanilide) and S-2251 (H-D-Val-Leu-Lys-p-nitroanilide) for THR, HMW- and LMW-uPA, and PM, respectively (from Biogenic). Matrix metalloprotease-2 previously activated by treatment with APMA were assayed at 412 nm with the thiopeptide Ac-Pro-Leu-Gly-^Sleu-Leu-Gly-Oet in the presence of 5,5′-dithiobis(2-nitrobenzenic) acid (DTNB). […]

[2] = target: T2, Plasmin (Homo sapiens, UniProt P00747); test: Inactivation of plasmin (preincubation method); type: biochemical; conditions: pH 7.5, 25°C; preincubation method; NI=no inhibition
T2 construct: No; X′; α-CT; HLE; LMW-uPA; Plasmin; purchased Biogenic
Procedure: Bovine α-CT and LMW-uPA (MW=33 000 Da) were purchased from Sigma, HMW-uPA (MW=54 000 Da) from Choay, trypsin (TRY) and THR from Boehringer-Indelheim (Germany), and MMP-2 and MMP-9 from Calbiochem. Human leucocyte elastase and PM were from Elastase Products Co. and Biogenic, respectively. Except for THR, HMW-uPA, MMP-2 and MMP-9, enzyme concentrations were determined by active-site titrations using the appropriate titrant ([Bender et al, 1966]; [Chase and Shaw, 1970]; [Powers and Gupton, 1977]). […]
The kinetic parameters for the inhibition were determined either by the preincubation method for LMW-uPA and PM (small aliquots of the reaction mixture were withdrawn at intervals of time and the remaining activity determined), or by the progress curve method (HLE) when the inhibition was too fast to be measured accurately using the preincubation method. […]
At low inhibitor concentrations, the ratio ki/KI was obtained as kobs/[I]0. […] In the progress curve method, the substrate competes with the inhibitor and the kinetic parameters are determined as previously described ([Doucet et al, 1999]). […]

[3] = system: HMW- and LMW-uPA; test: Plasminogen zymography of HT1080 conditioned medium; type: biochemical, human; conditions: 1–100 μM in HT1080 conditioned medium
Procedure: The culture medium of human fibrosarcoma HT1080 cells (DMEM) was removed and concentrated 20-fold in a Vivaspin 6 ml concentrator. It was incubated for 30 min at ambient temperature in nonreducing sample buffer and run under Laemmli conditions ([Laemmli, 1970]) by loading a volume of 25 μl onto 7.5% polyacrylamide gels containing 0.1% sodium dodecyl sulphate (SDS), 2 mg ml^−1 casein and 0.16 μM human plasminogen. Following electrophoresis, gels were incubated for 1 h in 2.5% (v v^−1) Triton X-100 for removal of SDS and then for 1 h at 37°C in 50 mM Tris-HCl, 0.1 M NaCl, pH 7.6. Plasminogen activator (PA) activity was visualised as clear bands of lysis upon staining with 0.1% Coomassie blue R250. Purified human high-molecular-weight two-chain urokinase plasminogen activator (HMW-uPA) and low-molecular-weight urokinase plasminogen activator (LMW-uPA) were run in each gel as positive controls. An analogous protocol was followed to detect enzymatic activities towards MMP-2 and MMP-9 except that the 7% SDS–PAGE contained 1 mg ml^−1 bovine gelatin. The gels were incubated at 37°C for about 18 h in 5 mM Tris, pH 7.6 containing 0.2 M NaCl, 5 mM CaCl2 and 0.02 (w v^−1) Brij35. Protein staining was performed during 1 h with a 0.25% solution of Coomassie brillant blue R250 in 50% methanol and 7% acetic acid and destaining in a solution of 20% methanol and […]. […]

T2 sequence (P00747 581-810 limits assumed, species assumed): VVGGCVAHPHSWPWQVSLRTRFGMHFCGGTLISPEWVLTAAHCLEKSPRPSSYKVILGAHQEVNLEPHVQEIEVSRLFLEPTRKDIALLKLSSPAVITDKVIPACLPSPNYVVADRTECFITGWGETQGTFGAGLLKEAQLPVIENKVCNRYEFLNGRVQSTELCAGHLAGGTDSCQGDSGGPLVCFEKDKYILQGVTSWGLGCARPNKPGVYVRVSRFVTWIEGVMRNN
T2 sequence (P00747 97-580 partner limits assumed, species assumed): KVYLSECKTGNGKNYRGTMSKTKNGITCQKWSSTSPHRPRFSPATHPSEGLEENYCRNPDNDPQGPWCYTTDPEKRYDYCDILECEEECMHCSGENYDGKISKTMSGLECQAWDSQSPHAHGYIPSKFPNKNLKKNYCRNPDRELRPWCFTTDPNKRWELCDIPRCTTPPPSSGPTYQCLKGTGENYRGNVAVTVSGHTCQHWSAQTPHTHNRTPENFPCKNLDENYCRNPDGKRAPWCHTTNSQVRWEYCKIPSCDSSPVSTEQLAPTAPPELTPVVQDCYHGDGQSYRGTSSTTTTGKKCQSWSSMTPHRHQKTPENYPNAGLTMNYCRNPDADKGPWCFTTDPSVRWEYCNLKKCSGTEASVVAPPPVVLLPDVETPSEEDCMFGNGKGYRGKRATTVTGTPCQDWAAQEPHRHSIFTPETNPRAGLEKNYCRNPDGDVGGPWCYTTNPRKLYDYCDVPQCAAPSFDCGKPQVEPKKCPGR

Structure (SMILES) | inhibition of HMW-uPA [1] | ki/KI or kobs/[I], Plasmin [2] | effect on HMW- and LMW-uPA activities of conditioned culture medium (plasminogen zymography) [3] | melting point [°C]
CC(=O)OCc1ccc2oc(=O)c(C(=O)Oc3cccc(Cl)c3)cc2c1 [compound 4, 3-chlorophenyl 6-acetoxymethyl-2-oxo-2H-1-benzopyran-3-carboxylate] | not affected | not affected | did not abrogate | 
CC(=O)OCc1ccc2oc(=O)c(C(=O)Oc3cccc(Br)c3)cc2c1 [compound 7, 3-bromophenyl 6-acetoxy-methyl-2-oxo-2H-1-benzopyran-3-carboxylate] | not affected |  | did not abrogate | 141 to 142
